# Measured values from US8586307B2, “Methods for diagnosing epigenetic, transgenerational effects of environmental toxicants on mammalian germ-lines and treating associated diseases” (priority 2005, dated 2013).
# Where “and” joins values, the source holds several entries; their conditions need not be identical. Equal values may be shown once.
# Tests used:
# [1] = test system: spermatogenic cells; assay: Spermatogenic cell apoptosis in testis sections (TUNEL) after transient embryonic exposure; conditions: rat, in vivo
# Experimental: In Vivo Procedures: Gestating outbred Sprague-Dawley and inbred Fisher mother rats from timed, pregnant colonies housed at the Washington State University Vivarium, were given intraperitoneal injections of vinclozolin (100 mg/kg/day) and methoxychlor (200 mg/kg/day) from embryonic day 8-15 (E8-E15, sperm positive vaginal smear date=E0) of gestation (F0 generation) as previously described. Gestating mothers administered vehicle, sesame oil or DMSO, served as controls. At least 6 lines (individual F0 injected females) were generated for controls and treated groups for these analyses. Male rats from control and treated groups were collected at P60-P180 for analyses. F1 treated males were bred to F1 treated females to generate the F2 treated generation and F2 treated males were bred to F2 treated females to generate the F3 generation and the F3 were bred in the same manner to generate the F4 generation. Rats for the control groups were bred in the same manner for all the generations. No inbreeding or sibling crosses were generated. The outcross group (VOC) were generated by breeding the F2 treated males with wild-type females (total of 6 litters) and reverse outcross group (RVOC) was generated by breeding F2 treated females with wild-type males (total of 3 litters). Control (n=4) and treated (n=4) male offspring from the F1 generation from Fisher strain rats were collected at P6 for DNA methylation analysis, see below. All procedures have been approved by the Washington State University Animal Care Committee. The number of animals used for replicates in the experiments (i.e. n value) are as follows for vinclozolin treatment: F1 (control 11, treated 12); F2 (control 19, treated 30); F3 (control 19, treated 26); F4 (control 10, treated 17); VOC (18); and RVOC (6). […]
# Detection of Cell Apoptosis: To detect apoptotic cells in testis sections, the Fluorescien In Situ Cell Death Detection Kit (Roche Applied Science, Indianapolis, Ind.) was utilized. […] Fluorescent apoptotic cells were imaged on a confocal microscope and quantitation of number of apoptotic cells per testis cross section. […]
# [2] = test system: sperm DNA; assay: Bisulfite sequencing of sperm DNA; assay type: in vivo, rat
# Experimental: Bisulfite Sequencing: Genomic DNA was isolated from F1 and F4 sperm samples using the DNeasy Tissue Kit (Qiagen, Valencia, Calif.) and digested with Rsa I. Genomic DNA was then treated with sodium bisulfite, following methods previously established. Briefly, 5 μg of digested DNA was denatured in NaOH, then treated with 4.0 M, pH 5.0 sodium metabisulfite for 16 hours at 55° C. Following desalting, DNA was desulfonated with NaOH, neutralized and precipitated with ammonium acetate and ethanol. DNA samples were resuspended in 30 μL, of 1 mM Tris buffer, pH 8.0. Sequence specific primers were generated to amplify the region of interest. PCR products were cloned into pGemT Easy vector (Promega Corporation) and sequenced. Approximately 35 clones from each PCR product were sequenced for analysis of methylation state of the CpG sites. Confirming altered methylation states involved comparisons of the sequence following the bisulfite treatment. The primers for the lysophospholipase PCR bisulfite analysis were 5′GGTATATATAGAGGAAGGTAGGTA GG3′ (SEQ ID NO:1) and 5′TAAAAACCTCCAAAAAACAAACAC T3′ (SEQ ID NO:2).
# Bisulfite sequencing: Bisulfite sequencing was used to characterize the DNA methylation patterns and changes. Genomic DNA was isolated from control and vinclozolin F2 and F3 generation epididymal sperm using the DNeasy Tissue Kit. Genomic DNA (10 μg) was digested with RsaI then treated with bisulfite as described above for Example I. After purification, the bisulfite converted DNA was used as a template for PCR. The bisulfite primers for each candidate were designed using MethPrimer (www.urogene.org/methprimer) system (Li and Dahiya, 2002) and are listed in Table 2. The sequence specific primers were generated to amplify the CpG region of interest to characterize the methylation pattern. PCR conditions for amplification were as follows: 30 cycles followed by another 30 cycles with nested primers (30 s at 95° C., 45 s at 50° C., and 50 s at 72° C.) and then 5 min at 72° C. with modified 1× buffer [10×: 166 mM (NH4)2.SO4; 670 mM Tris pH 8.8; 67 mM MgCl2; 100 mM β-mercaptoethanol]. PCR products were cloned into pGEM-T easy vector (Promega) and sequenced using Big-Dye Terminator (Applied BioSystems). Approximately 50 different clones from each PCR product were sequenced to characterize the methylation state of the CpG sites identified. A mixture of a minimum of 3 different F2 or F3 generation control and vinclozolin animals were used to generate approximately 50 clones per candidate analyzed. Statistical differences between methylation states were determined with a Fisher's Exact Test.
# [3] = test system: NCAM1; assay: Semi-quantitative PCR of NCAM1 expression in adult brain; assay type: in vivo, rat; conditions: F3 generation males vs control
# Experimental: The expression of one of the known genes nearest an altered methylation site identified candidate #1 (NCAM1), is primarily brain specific. An analysis of gene expression for NCAM in the brain was performed. Brains from adult control and vinclozolin F3 generation males were isolated, and RNA was prepared. Four control and five vinclozolin F3 generation animals were analyzed separately. […] This decreased expression of NCAM1 was quantitated, and over a 10-fold reduction in expression was observed between control and vinclozolin F3 generation males, FIG. 15C. Therefore, the hypermethylation of the candidate #1 site in sperm DNA was associated with a reduction in NCAM1 expression in the adult male brain, in vinclozolin F3 generation animals.
# [4] = General observations (body weight, litter size, serum testosterone, other tissues); assay type: in vivo, rat
# Experimental: In Vivo Procedures: Gestating outbred Sprague-Dawley and inbred Fisher mother rats from timed, pregnant colonies housed at the Washington State University Vivarium, were given intraperitoneal injections of vinclozolin (100 mg/kg/day) and methoxychlor (200 mg/kg/day) from embryonic day 8-15 (E8-E15, sperm positive vaginal smear date=E0) of gestation (F0 generation) as previously described. Gestating mothers administered vehicle, sesame oil or DMSO, served as controls. At least 6 lines (individual F0 injected females) were generated for controls and treated groups for these analyses. Male rats from control and treated groups were collected at P60-P180 for analyses. F1 treated males were bred to F1 treated females to generate the F2 treated generation and F2 treated males were bred to F2 treated females to generate the F3 generation and the F3 were bred in the same manner to generate the F4 generation. Rats for the control groups were bred in the same manner for all the generations. No inbreeding or sibling crosses were generated. The outcross group (VOC) were generated by breeding the F2 treated males with wild-type females (total of 6 litters) and reverse outcross group (RVOC) was generated by breeding F2 treated females with wild-type males (total of 3 litters). Control (n=4) and treated (n=4) male offspring from the F1 generation from Fisher strain rats were collected at P6 for DNA methylation analysis, see below. All procedures have been approved by the Washington State University Animal Care Committee. The number of animals used for replicates in the experiments (i.e. n value) are as follows for vinclozolin treatment: F1 (control 11, treated 12); F2 (control 19, treated 30); F3 (control 19, treated 26); F4 (control 10, treated 17); VOC (18); and RVOC (6). For methoxychlor treatment animal number was for F1 (control 6, treated 9) and F2 (control 16, treated 22).
# [5] = F2/F3 sperm DNA, one of 5 potential CpG sites
# [6] = F2/F3 sperm DNA, one of 6 potential CpG sites
smiles,measurement,setting,value
C=CC1(C)OC(=O)N(c2cc(Cl)cc(Cl)c2)C1=O (stereo not drawn) [vinclozolin],males analyzed that had the increased spermatogenic cell apoptosis,[1]; male,Greater than 90%
same,effect on the spermatogenic cells in reverse outcross (RVOC),[1],no effect
same,spermatogenic cell apoptosis in outcross (VOC) males,[1],increase
same,treated sperm DNA samples with bisulfite altered sequence of the lysophospholipase gene,[2]; CpG island of lysophospholipase gene,approximately 25%
same,"methylation differences, Candidate #7 (Ankrd28/Galntl2)",[2]; F2/F3 sperm DNA,did not have any detectable differences
same,"methylation differences, Candidate #21, 32 (LOC503205/NCAM1)",[2]; F2/F3 sperm DNA,no differences in methylation
same,"methylation differences, Candidate #23 (LOC503150/snRP1c)",[2]; F2/F3 sperm DNA,no differences in methylation
same,"methylation differences, Candidate #25 (Mup4/MUP)",[2]; F2/F3 sperm DNA,no differences in methylation
same,"CpG hypermethylated to, Candidate #29 (Runx1/Awa1p)","[2]; F2/F3 sperm DNA, 1 of 6 potential CpG sites",48%
same,"CpG hypermethylated to, Candidate #14, 15 (Lrrn6a)","[2]; F2/F3 sperm DNA, 2 of 4 potential CpG",27%
same,"CpG hypermethylated to, Candidate #26 (Acaca)","[2]; F2/F3 sperm DNA, 2 of 5 potential CpG sites",50% and 28%
same,"CpG hypermethylated to, Candidate #33 (Six3/Six2)","[2]; F2/F3 sperm DNA, 2 of 6 potential CpG sites",31% and 57%
same,"CpG hypermethylated to, Candidate #27, 28 (zinc finger protein 212)","[2]; F2/F3 sperm DNA, 2 of 8 potential CpG sites",45% and 48%
same,"CpG hypermethylated to, Candidate #5, 6, 9 (FLJ22405 protein)","[2]; F2/F3 sperm DNA, 2 of 9 potential CpG",50% and 35%
same,"CpG hypermethylated to, Candidate #17, 18 (nicastrin/Copa)","[2]; F2/F3 sperm DNA, 2 of 20 potential CpG sites",55% and 30%
same,"CpG hypermethylated to, Candidate #13 (Nfix)","[2]; F2/F3 sperm DNA, 4 of 17 potential CpG sites",50-60%
same,"methylation differences, Candidate #4, 19 (Cacna1e)","[2]; F2/F3 sperm DNA, 6 potential CpG",did not have any detectable differences in methylation
same,"CpG hypermethylated to, Candidate #31 (Waspip/LOC499811)","[2]; F2/F3 sperm DNA, one of 4 potential CpG sites",42%
same,"CpG hypermethylated to, Candidate #8 (liprin-α1/Fadd)",[2]; [5],65%
same,"CpG hypermethylated to, Candidate #22 (tgolgin-1)",[2]; [5],67%
same,"CpG hypermethylated to, Candidate #12 (similar to importin 7)",[2]; [6],51%
same,"CpG hypermethylated to, Candidate #16 (optineurin)",[2]; [6],79%
same,"H19 methylation (known imprinted gene, control)",[2]; control vs vinclozolin F2/F3 sperm DNA,No change
same,candidate DNA sequences confirmed to have specific hypermethylation,"[2]; of the 25 candidates, F2/F3 sperm DNA",15
same,"methylation change, Candidate #34 (RAB12)",[2]; partial region only,no change in methylation
same,reduction in NCAM1 expression,[3],> 10 fold
same,serum testosterone levels,[4]; all the animals,normal
same,effect on total body weight,"[4]; rat, in vivo",no effect
same,gross abnormality in any other tissues examined,"[4]; rat, in vivo",No gross abnormality
same,"litter size, newborn pup weights or testis weight per body weight","[4]; rat, in vivo",no change
